According to US20100137303A1, “NEW COMPOUND 255” (AstraZeneca AB, priority 2008, published 2010):
Values after ≈ are worked out from the molar mass of the structure shown.

How the values were obtained:
Msm. GyrB = biological target: T1, Msm. GyrB (Mycolicibacterium smegmatis, UniProt A0QNE0); test: Msmegmatis GyrB enzyme assay (ATPase, malachite green phosphate detection); assay type: biochemical; conditions: read-out: Msm_GyrB IC50
T1 construct: 15 nM Msm; GyrB, 650 μM ATP, and compound in dimethyl sulfoxide
T1 sequence (A0QNE0 whole entry): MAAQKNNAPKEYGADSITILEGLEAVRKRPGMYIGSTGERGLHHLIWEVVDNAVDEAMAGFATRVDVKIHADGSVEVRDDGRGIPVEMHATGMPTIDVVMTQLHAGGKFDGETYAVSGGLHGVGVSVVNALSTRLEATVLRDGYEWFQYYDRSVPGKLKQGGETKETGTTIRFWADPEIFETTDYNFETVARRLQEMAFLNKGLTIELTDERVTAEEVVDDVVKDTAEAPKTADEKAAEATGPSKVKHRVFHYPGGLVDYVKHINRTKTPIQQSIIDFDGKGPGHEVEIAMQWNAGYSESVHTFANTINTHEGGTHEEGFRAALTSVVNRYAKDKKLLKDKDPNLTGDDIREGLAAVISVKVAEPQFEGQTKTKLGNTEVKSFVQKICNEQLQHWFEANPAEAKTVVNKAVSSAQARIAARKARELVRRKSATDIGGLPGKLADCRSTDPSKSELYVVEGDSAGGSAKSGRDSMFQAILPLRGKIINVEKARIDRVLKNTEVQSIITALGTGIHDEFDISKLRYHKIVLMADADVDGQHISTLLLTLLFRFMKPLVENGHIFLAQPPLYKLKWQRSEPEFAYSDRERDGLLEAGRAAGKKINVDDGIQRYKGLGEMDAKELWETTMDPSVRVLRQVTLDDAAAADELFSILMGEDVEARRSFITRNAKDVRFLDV
Description: Compounds may be tested for inhibition of GyrB ATPase activity using an ammonium molybdate/malachite green-based phosphate detection assay (Lanzetta, P. A., L. J. Alvarez, P. S. Reinach, and O. A. Candia, 1979, 100: 95-97; Innova Biosciences malachite green detection kit). Assays can be performed in multi-well plates in 50 μl reactions containing: 50 mM HEPES buffer pH 7.7, 250 mM potassium glutamate, 200 mM potassium chloride, 2 mM magnesium chloride, 2% glycerol, 1 mM 1,4-Dithio-DL-threitol, 0.005% Brij-35, 15 nM Msm. GyrB, 650 μM ATP, and compound in dimethyl sulfoxide. Reactions can be quenched with 12.5 μl of ammonium molybdate/malachite green detection reagent (Pi color lock gold & accelerator mix; Innova Biosciences), followed by the addition of 5 μl of stabilizer (Innova Biosciences) after 5 min of incubation.

M. tuberculosis = test: Mycobacteria susceptibility testing, Microplate Alamar Blue Assay, Mtu MIC; assay type: cell-based, Mycobacterium tuberculosis (Mtu); conditions: Mycobacterium tuberculosis
Spn548 = test: Bacterial susceptibility testing in liquid media, Spn548 MIC; conditions: Streptococcus pneumoniae, 24 h, read-out: Spn548 Mean MIC
Description: (§1) Compounds may be tested for antimicrobial activity by susceptibility testing in liquid media. Compounds may be dissolved in dimethylsulfoxide and tested in 10 doubling dilutions in the susceptibility assays. The organisms used in the assay may be grown overnight on suitable agar media and then suspended in a liquid medium appropriate for the growth of the organism. The suspension can be a 0.5 McFarland and a further 1 in 10 dilution can be made into the same liquid medium to prepare the final organism suspension in 100 μL. Plates can be incubated under appropriate conditions at 37° C. for 24 hrs prior to reading.

Eco-tolC = test: Bacterial susceptibility testing in liquid media, Eco-tolC MIC; conditions: Escherichia coli, read-out: Eco-tolC MIC
Description: as §1

Compound | IC50 (Msm. GyrB) [nM] | MIC (M. tuberculosis) [µg/mL] | MIC (Spn548) [µg/mL] | MIC (Eco-tolC) [µg/mL]
C=CCNC(=O)Nc1nc2cc(-c3cncc(C(=O)N4CCOCC4)c3)cnc2s1 [Example 25, 1-{6-[5-(morpholin-4-ylcarbonyl)pyridin-3-yl][1,3]thiazolo[5,4-b]pyridin-2-yl}-3-prop-2-en-1-ylurea] | 1440 | > 32 | > 32 | > 32
CCNC(=O)Nc1nc2cc(-c3cncnc3)c(OCCOC(C)C)nc2s1 [Example 35, 1-ethyl-3-{5-[2-(1-methylethoxy)ethoxy]-6-pyrimidin-5-yl[1,3]thiazolo[5,4-b]pyridin-2-yl}urea] | 28 | 0.354 (≈ 0.879 µM) | 0.0625 (≈ 0.155 µM) | 0.25 (≈ 0.621 µM)
C=CCNC(=O)Nc1nc2cc(-c3cnc(OC)nc3)c(OCCN3CCCC3)nc2s1 [Example 20, 1-[6-(2-methoxypyrimidin-5-yl)-5-(2-pyrrolidin-1-ylethoxy)[1,3]thiazolo[5,4-b]pyridin-2-yl]-3-prop-2-en-1-ylurea] | 259 | > 32 | > 32 | > 32
CCNC(=O)Nc1nc2cc(-c3cncnc3)c(OCCC(C)C)nc2s1 [Example 37, 1-ethyl-3-[5-(3-methylbutoxy)-6-pyrimidin-5-yl[1,3]thiazolo[5,4-b]pyridin-2-yl]urea] | 11.8 | < 0.25 | 0.0625 (≈ 0.162 µM) | 0.25 (≈ 0.647 µM)
C=CCNC(=O)Nc1nc2cc(Br)cnc2o1 [Example 14, 1-allyl-3-(6-bromooxazolo[5,4-b]pyridin-2-yl)urea] | 24700 | > 16 | 16 (≈ 53.9 µM) | 32 (≈ 108 µM)
CCNC(=O)Nc1nc2cc(-c3cnc(C#N)nc3)c(OCC3CCOC3)nc2s1 (stereo not drawn) [Example 66, 1-[6-(2-cyanopyrimidin-5-yl)-5-(tetrahydrofuran-3-ylmethoxy)[1,3]thiazolo[5,4-b]pyridin-2-yl]-3-ethylurea] | < 2.54 | < 0.043 | 0.125 (≈ 0.294 µM) | 0.5 (≈ 1.18 µM)
C=CCNC(=O)Nc1nc2cc(-c3cncc(C(=O)O)c3)c(C)nc2s1 [Example 12, 5-[2-(3-Allyl-ureido)-5-methylthiazolo [5,4b]pyridin-6-yl]nicotinic acid] | 166 | > 32 | 32 (≈ 86.6 µM) | > 32
CCNC(=O)Nc1nc2cc(-c3cncc(C(=O)O)c3)cnc2s1 [Example 11, 5-[2-(3-Ethyl-ureido)-thiazolo [5,4-b]pyridin-6-yl]-nicotinic acid] | 159 | 32 (≈ 93.2 µM) | 17.2 (≈ 50 µM) | > 34.3
CCNC(=O)Nc1nc2cc(-c3cncnc3)c(OCCc3scnc3C)nc2s1 [Example 38, 1-ethyl-3-{5-[2-(4-methyl-1,3-thiazol-5-yl)ethoxy]-6-pyrimidin-5-yl[1,3]thiazolo[5,4-b]pyridin-2-yl}urea] | < 5.01 | 0.281 (≈ 0.636 µM) | 0.0625 (≈ 0.142 µM) | 0.125 (≈ 0.283 µM)
CCNC(=O)Nc1nc2cc(-c3ccc(C(F)(F)F)nc3)c(OCC3CCOC3)nc2s1 (stereo not drawn) [Example 70, 1-ethyl-3-{5-(tetrahydrofuran-3-ylmethoxy)-6-[6-(trifluoromethyl)pyridin-3-yl][1,3]thiazolo[5,4-b]pyridin-2-yl}urea] | 6.92 | 4.76 (≈ 10.2 µM) | 0.0625 (≈ 0.134 µM) | 0.25 (≈ 0.535 µM)
C=CCNC(=O)Nc1nc2cc(-c3cncc(C(=O)NCC(C)C)c3)cnc2s1 [Example 26, N-(2-methylpropyl)-5-{2-[(prop-2-en-1-ylcarbamoyl)amino][1,3]thiazolo[5,4-b]pyridin-6-yl}pyridine-3-carboxamide] | 394 | > 32 | > 32 | > 32
CCNC(=O)Nc1nc2cc(-c3cncnc3)c(OC[C@H]3CCCO3)nc2s1 [Example 63, 1-ethyl-3-{6-pyrimidin-5-yl-5-[(2R)-tetrahydrofuran-2-ylmethoxy][1,3]thiazolo[5,4-b]pyridin-2-yl}urea] | 2.6 | 0.25 (≈ 0.624 µM) | 0.125 (≈ 0.312 µM) | 1 (≈ 2.5 µM)
CCNC(=O)Nc1nc2cc(-c3c(C)noc3C)c(OCC3CCOCC3)nc2s1 [Example 62, 1-[6-(3,5-dimethylisoxazol-4-yl)-5-(tetrahydro-2H-pyran-4-ylmethoxy)[1,3]thiazolo[5,4-b]pyridin-2-yl]-3-ethylurea] | 727 | > 4 | 8 (≈ 18.5 µM) | 64 (≈ 148 µM)
C=CCNC(=O)Nc1nc2cc(-c3cncc(C(=O)NCC4CCOCC4)c3)cnc2s1 [Example 21, 5-{2-[(prop-2-en-1-ylcarbamoyl)amino][1,3]thiazolo[5,4-b]pyridin-6-yl}-N-(tetrahydro-2H-pyran-4-ylmethyl)pyridine-3-carboxamide] | 236 | > 64 | > 32 | > 32
CCNC(=O)Nc1nc2cc(-c3cncnc3)c(OCC3CCOCC3)nc2s1 [Example 49, 1-ethyl-3-[6-pyrimidin-5-yl-5-(tetrahydro-2H-pyran-4-ylmethoxy)[1,3]thiazolo[5,4-b]pyridin-2-yl]urea] | < 2.54 | 0.0625 (≈ 0.151 µM) | 0.0625 (≈ 0.151 µM) | 0.125 (≈ 0.302 µM)
CCNC(=O)Nc1nc2cc(-c3cccnc3OC)c(OCC3CCOCC3)nc2s1 [Example 61, 1-ethyl-3-[6-(2-methoxypyridin-3-yl)-5-(tetrahydro-2H-pyran-4-ylmethoxy)[1,3]thiazolo[5,4-b]pyridin-2-yl]urea] | 4.74 | > 4 | 0.25 (≈ 0.564 µM) | 16 (≈ 36.1 µM)
C=CCNC(=O)Nc1nc2cc(-c3cncc(C(=O)N(C)C)c3)c(C)nc2s1 [Example 13, 5-[2-(3-Allyl-ureido)-5-methyl-thiazolo[5,4-b]pyridin-6-yl]-N,N-dimethyl-nicotinamide] | 644 | > 32 | 4 (≈ 10.1 µM) | > 32
CCNC(=O)Nc1nc2cc(-c3cncnc3)c(NCC3CCCO3)nc2s1 (stereo not drawn) [Example 52, 1-ethyl-3-{6-pyrimidin-5-yl-5-[(tetrahydrofuran-2-ylmethyl)amino][1,3]thiazolo[5,4-b]pyridin-2-yl}urea] | 7.88 | 1 (≈ 2.5 µM) | 0.125 (≈ 0.313 µM) | 4 (≈ 10 µM)
CCNC(=O)Nc1nc2cc(-c3cncnc3)c(OCC(F)(F)F)nc2s1 [Example 39, 1-ethyl-3-[6-pyrimidin-5-yl-5-(2,2,2-trifluoroethoxy)[1,3]thiazolo[5,4-b]pyridin-2-yl]urea] | < 3.87 | 0.25 (≈ 0.628 µM) | 0.0625 (≈ 0.157 µM) | 0.354 (≈ 0.888 µM)
CCNC(=O)Nc1nc2cc(-c3cncnc3)c(OCC(C)C)nc2s1 [Example 43, 1-ethyl-3-[5-(2-methylpropoxy)-6-pyrimidin-5-yl[1,3]thiazolo[5,4-b]pyridin-2-yl]urea] | 4.39 | 0.125 (≈ 0.336 µM) | 0.0727 (≈ 0.195 µM) | 0.582 (≈ 1.56 µM)
C=CCNC(=O)Nc1nc2cc(-c3cncc(C(=O)OCC)c3)c(C)nc2s1 [Example 8, 5-[2-(3-Allyl-ureido)-5-methyl-thiazolo [5,4-b]pyridin-6-yl]-nicotinic acid ethyl ester] | 151 | > 32 | > 39.8 | > 39.8
C=CCNC(=O)Nc1nc2cc(-c3cncnc3)c(OCC(C)C)nc2s1 [Example 33, 1-[5-(2-methylpropoxy)-6-pyrimidin-5-yl[1,3]thiazolo[5,4-b]pyridin-2-yl]-3-prop-2-en-1-ylurea] | 18.4 | 1 (≈ 2.6 µM) | 0.0625 (≈ 0.163 µM) | 1 (≈ 2.6 µM)
C=CCNC(=O)Nc1nc2cc(-c3cncc(C(=O)NC)c3)cnc2s1 [Example 22, N-methyl-5-{2-[(prop-2-en-1-ylcarbamoyl)amino][1,3]thiazolo[5,4-b]pyridin-6-yl}pyridine-3-carboxamide] | 323 | > 64 | > 32 | > 32
C=CCNC(=O)Nc1nc2cc(-c3cnccn3)cnc2s1 [Example 32, 1-prop-2-en-1-yl-3-(6-pyrazin-2-yl[1,3]thiazolo[5,4-b]pyridin-2-yl)urea] | 836 | > 32 | 32 (≈ 102 µM) | > 32
CCNC(=O)Nc1nc2cc(-c3cncnc3)c(OCC3CCCO3)nc2s1 (stereo not drawn) [Example 51, 1-ethyl-3-[6-pyrimidin-5-yl-5-(tetrahydrofuran-2-ylmethoxy)[1,3]thiazolo[5,4-b]pyridin-2-yl]urea] | 4.87 | 0.25 (≈ 0.624 µM) | 0.0625 (≈ 0.156 µM) | 0.125 (≈ 0.312 µM)
C=CCNC(=O)Nc1nc2cc(-c3cncc(C(=O)NCC)c3)cnc2s1 [Example 23, N-ethyl-5-{2-[(prop-2-en-1-ylcarbamoyl)amino][1,3]thiazolo[5,4-b]pyridin-6-yl}pyridine-3-carboxamide] | 404 | > 64 | > 32 | > 32
CCNC(=O)Nc1nc2cc(-c3cncnc3)c(OC3CCOC3)nc2s1 (stereo not drawn) [Example 64, 1-ethyl-3-[6-pyrimidin-5-yl-5-(tetrahydrofuran-3-yloxy)[1,3]thiazolo[5,4-b]pyridin-2-yl]urea] | < 2.54 | 0.125 (≈ 0.323 µM) | 0.125 (≈ 0.323 µM) | 0.5 (≈ 1.29 µM)
